Patent US7405051B2, “Method of screening antiplatelet agents” (Astellas Pharma Inc., priority 2000, dated 2008)

Tests used:
[1] = molecular target: HORK3 protein (human ADP receptor P2TAC) (Homo sapiens, UniProt Q9H244); assay: [3H]-2MeSADP binding assay on membrane fraction of C6-15 cell expressing HORK3 protein; settings: Scatchard analysis
From the text: (§1) The C6-15 cells expressing the HORK3 protein prepared in Example 5 were taken and washed, and then suspended in 20 mmol/L Tris-HCl (pH7.4) containing 5 mmol/L EDTA and a protease inhibitor cocktail set (Complete™; manufactured by Boeringer Mannheim). The whole was homogenized by using a POLYTRON, and ultracentrifuged. The pellet was suspended in 50 mmol/L Tris-HCl (pH7.4) containing 1 mmol/L EDTA, 100 mmol/L NaCl, 0.1% BSA, and Complete™ to obtain a membrane fraction.
(§2) After [^3H]-2MeSADP (manufactured by Moravek Biochemical) was added to 20 μg of the membrane fraction as a final concentration of 0.25 to 50 nmol/L, and was incubated in 250 μL of 50 mmol/L Tris-HCl (pH7.4) containing 1 mmol/L EDTA, 100 mmol/L NaCl, 0.1% BSA, and Complete™ at room temperature for 1 hour, the whole was collected on a glass filter by using a cell harvester. A microscintillator was added to the glass filter, and then a total amount of binding to the membrane fraction was measured by using a liquid scintillation counter. Further, an amount of non-specific binding to the membrane fraction was measured by adding 2MeSADP (a final concentration=50 μmol/L) in the above assay.
A microscintillator was added to the glass filter, and then radioactivity was measured by using a liquid scintillation counter. Further, radioactivity was measured by not adding the compound and by adding 2MeSADP (a final concentration=10 μmol/L) in the above assay, as a total amount of binding and an amount of non-specific binding, respectively.

[2] = tested on: membrane fraction of the host cell C6-15 not expressing the HORK3 protein; assay: [3H]-2MeSADP binding to membrane fraction of host cell C6-15 not expressing HORK3 protein; design: species or system rat
From the text: as §1
as §2, with “assay. […] In contrast, such a specific binding was not observed in the membrane fraction of the host cell C6-15 not expressing the HORK3 protein.” for “assay.”

Sequence of HORK3 protein (human ADP receptor P2TAC) (Q9H244 whole entry): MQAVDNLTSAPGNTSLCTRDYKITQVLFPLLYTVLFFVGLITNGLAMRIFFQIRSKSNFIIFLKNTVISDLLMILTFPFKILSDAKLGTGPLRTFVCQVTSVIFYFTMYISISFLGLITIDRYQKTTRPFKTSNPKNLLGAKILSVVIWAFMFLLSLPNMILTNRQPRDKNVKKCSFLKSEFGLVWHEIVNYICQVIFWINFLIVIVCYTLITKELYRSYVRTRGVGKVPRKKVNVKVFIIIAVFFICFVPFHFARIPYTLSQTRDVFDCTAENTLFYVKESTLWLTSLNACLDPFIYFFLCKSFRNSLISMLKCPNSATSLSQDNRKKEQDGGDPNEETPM

## CSc1nc(N)c2ncn([C@@H]3O[C@H](COP(=O)(O)OP(=O)(O)O)[C@@H](O)[C@H]3O)c2n1 [[^3H]-2MeSADP, [^3H] 2-methylthio-ADP]
[1]; 0.25 to 50 nmol/L, room temperature 1 hour, read-out: dissociation constant Kd of binding to the membrane fraction
  Kd: 0.27 nM
[1]; membrane fraction of C6-15 cell expressing HORK3
  maximum binding Bmax: 3.7 pmol/mg
[2]
  specific binding to the membrane fraction: not observed
